From paper PMC11781366 (Immunity, 2023)

Key:
[1] = biological target: T1, D. melanogaster STING (dSTING) (Drosophila melanogaster, UniProt A0A0B4LFY9); experiment: microscale thermophoresis in lysates of transfected S2 cells; format: biochemical
T1 sequence (A0A0B4LFY9 1-343): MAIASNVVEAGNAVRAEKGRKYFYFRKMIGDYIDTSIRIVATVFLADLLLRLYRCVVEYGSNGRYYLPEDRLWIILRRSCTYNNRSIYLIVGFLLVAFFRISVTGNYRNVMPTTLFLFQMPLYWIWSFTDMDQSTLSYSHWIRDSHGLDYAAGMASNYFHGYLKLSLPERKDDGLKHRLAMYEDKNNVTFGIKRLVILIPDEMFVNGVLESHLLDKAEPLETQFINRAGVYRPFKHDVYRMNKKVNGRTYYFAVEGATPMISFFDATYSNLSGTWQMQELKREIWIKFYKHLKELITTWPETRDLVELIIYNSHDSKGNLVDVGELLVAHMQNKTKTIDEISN

D. serrata STING = experiment: as above; format: biochemical, Drosophila serrata

For Nc1nc2c(ncn2[C@@H]2O[C@@H]3COP(=O)(O)O[C@@H]4[C@H](O)[C@@H](COP(=O)(O)O[C@H]3[C@H]2O)O[C@H]4n2cnc3c(=O)[nH]c(N)nc32)c(=O)[nH]1 [2′3′-c-di-GMP], the Kd [1] was 28.2 µM and the Kd (D. serrata STING) was 36.7 µM.
